The text below walks through data of patent US8546452B2, “S1P3 receptor antagonist” (TOA Eiyo Ltd., priority 2005, dated 2013).

Format in all cases: cell-based
One assay deals with T1, hS1P2 (Homo sapiens, UniProt O95136).
T1 construct: expressed in transfected cells
Briefly: S1P receptor subtype selectivity, S1P-induced [Ca2+]i increase in CHO-K1 cells stably expressing S1P2 (Calcium3). As for the experimental part:
(§1) The selectivity to the S1P receptor subtype was examined in the following manner. […] Furthermore, a Calcium3 (Molecular Devices, Inc.) solution prepared in HBSS (+) buffer, which is a fluorescent Ca^2+ indicator, was added, and the cells were incubated for 60 minutes at 37° C. Then, 100 μL of a test compound solution prepared to a concentration of 2×10 μmol/L was added, and the cells were incubated for 20 minutes at 37° C. […] The indicator was prepared and used according to the instruction manual.
(§2) A solution of the test compound was prepared by dissolving each of the test compounds in DMSO to a concentration of 10 mmol/L, and then diluting the solution with an HBSS (+) buffer solution to the predetermined concentration. […] The measurement values were obtained by subtracting the maximum RFU value for the blind test from the maximum RFU values for control or each test compounds. A decrease in the measurement value for the test compound relative to the control was indicated as the suppression rate (%), from which the IC50 value was calculated.

The next assay concerns the target T2, hS1P1 (Homo sapiens, UniProt P21453).
T2 construct: expressed in transfected cells
Put plainly: S1P receptor subtype selectivity, S1P-induced [Ca2+]i increase in CHO-K1 cells stably expressing S1P1 (Calcium3). Here is the method:
as §1, §2

The target of another assay is hS1P3 (Homo sapiens, UniProt Q99500). Put plainly: Suppressive effect on S1P-induced increase in [Ca2+]i, CHO-K1 cells expressing S1P3 (Fura 2-AM), IC50. The note with it: S1P solution 50 nmol/L, read-out: hS1P3 suppression IC50.
The mark [1] stands for this setting: 10 μM, CHO-K1 stably expressing S1P2, S1P solution 100 nmol/L, Calcium3, read-out: Suppression rate at 10 μM (%) hS1P2.
Where [2] appears, read: 10 μM, CHO-K1 stably expressing S1P1, S1P solution 100 nmol/L, Calcium3, read-out: Suppression rate at 10 μM (%) hS1P1.
Where [3] appears, read: CHO-K1, read-out: Suppression rate at 10 μM (%) hS1P2.
[4] abbreviates: CHO-K1, read-out: Suppression rate at 10 μM (%) hS1P1.

pIC50: −log10 of the molar value. Read-outs that look alike come from different tables or passages of the source.

hS1P3, sequence (Q99500 whole entry): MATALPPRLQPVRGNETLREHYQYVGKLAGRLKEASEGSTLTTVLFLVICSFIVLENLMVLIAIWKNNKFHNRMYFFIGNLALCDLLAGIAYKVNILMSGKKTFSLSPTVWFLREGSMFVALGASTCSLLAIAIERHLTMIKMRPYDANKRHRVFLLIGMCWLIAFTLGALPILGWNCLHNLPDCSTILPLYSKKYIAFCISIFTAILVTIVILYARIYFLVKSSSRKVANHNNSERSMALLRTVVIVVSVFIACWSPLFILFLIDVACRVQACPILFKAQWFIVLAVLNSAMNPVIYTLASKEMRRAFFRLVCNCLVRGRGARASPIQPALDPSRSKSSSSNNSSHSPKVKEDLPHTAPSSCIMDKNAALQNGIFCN
T2 sequence (P21453 whole entry): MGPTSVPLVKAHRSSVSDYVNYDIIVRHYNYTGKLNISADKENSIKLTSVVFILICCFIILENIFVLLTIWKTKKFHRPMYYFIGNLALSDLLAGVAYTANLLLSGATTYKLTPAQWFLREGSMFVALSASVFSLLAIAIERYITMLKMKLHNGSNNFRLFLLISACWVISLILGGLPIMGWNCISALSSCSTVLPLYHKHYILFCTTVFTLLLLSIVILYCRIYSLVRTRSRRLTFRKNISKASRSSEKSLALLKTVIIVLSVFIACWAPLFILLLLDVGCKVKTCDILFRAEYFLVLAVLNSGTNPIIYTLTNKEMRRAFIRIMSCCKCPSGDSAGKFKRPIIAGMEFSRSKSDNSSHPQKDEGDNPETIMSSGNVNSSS
T1 sequence (O95136 whole entry): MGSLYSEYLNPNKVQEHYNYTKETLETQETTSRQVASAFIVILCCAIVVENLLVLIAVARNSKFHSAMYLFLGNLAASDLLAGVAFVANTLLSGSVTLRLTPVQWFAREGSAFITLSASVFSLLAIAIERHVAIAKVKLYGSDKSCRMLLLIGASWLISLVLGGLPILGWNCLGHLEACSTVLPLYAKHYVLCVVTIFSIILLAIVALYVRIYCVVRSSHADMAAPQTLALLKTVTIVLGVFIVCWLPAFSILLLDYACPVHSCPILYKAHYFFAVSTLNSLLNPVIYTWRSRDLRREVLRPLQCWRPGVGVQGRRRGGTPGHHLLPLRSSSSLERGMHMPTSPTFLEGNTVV

Regarding `CCOC(=O)C(=NNc1ccc(Cl)cc1)Nc1cccc(F)c1` [Compound 13, ethyl 1-(4-chlorophenylhydrazono)-1-(3-fluorophenylamino)acetate], the inhibition at 10 µM on hS1P2 (setting [1]) is -16.7%; at hS1P1 (setting [2]), 26.1%. Also, at hS1P3, the pIC50 was 5.51.
The like results for `CCOC(=O)C(=NNc1ccc(Cl)cc1)Nc1ccccc1` [Compound 19, ethyl 1-(4-chlorophenylhydrazono)-1-(phenylamino)acetate] were, in that order, -8.6%, -25.4% and 5.44.
In the case of `CCOC(=O)C(=NNc1ccc(Cl)cc1)Nc1cccc(C#N)c1` [Compound 20, ethyl 1-(4-chlorophenylhydrazono)-1-(3-cyanophenylamino)acetate], the inhibition at 10 µM at hS1P2 (setting [3]) is -4.6%; on hS1P1 (setting [4]), -3.5%. At hS1P3, the negative logarithm of the IC50 (pIC50) was 5.66.
The like results for `CC(C)(C)NC(=O)C(=NNc1ccc(Cl)cc1)Nc1cccc(F)c1` [Compound 28, N-tert-butyl-[1-(4-chlorophenylhydrazono)-1-(3-fluorophenylamino)]acetamide] were, in that order, 14.2%, 14.6% and 5.10.
Regarding `CC(C)(C)NC(=O)C(=NNc1ccc(Cl)cc1)Nc1ccc(Cl)cc1` [Compound 29, N-tert-butyl-[1-(4-chlorophenylamino)-1-(4-chlorophenylhydrazono)]acetamide], the inhibition at 10 µM on hS1P2 (setting [3]) came out at 17.4%; on hS1P1 (setting [4]), 29.7%. Also, at hS1P3, the pIC50 is 5.29.
`CC(C)(C)C(=O)C(=NNc1cccc(Cl)c1)Nc1cccc(F)c1` [Compound 41, 1-(3-chlorophenylhydrazono)-1-(3-fluorophenylamino)-3,3-dimethyl-2-butanone]: the inhibition at 10 µM at hS1P2 (setting [1]) turned out to be 27.1%; on hS1P1 (setting [2]) it was 18.4%. In addition, the negative-log IC50 (pIC50) at hS1P3 is 5.45.
Regarding `CC(C)(C)C(=O)C(=NNc1cccc(Cl)c1)Nc1ccc(Cl)cc1` [Compound 42, 1-(4-chlorophenylamino)-1-(3-chlorophenylhydrazono)-3,3-dimethyl-2-butanone], the results for the inhibition at 10 µM at hS1P2 (setting [3]) and on hS1P1 (setting [4]) were 32.9% and 7.9%, respectively. Moreover, the pIC50 at hS1P3 was 5.54.
`CC(C)(C)C(=O)C(=NNc1ccccc1)Nc1cccc(F)c1` [Compound 49, 1-(3-fluorophenylamino)-1-(phenylhydrazono)-3,3-dimethyl-2-butanone]: the inhibition at 10 µM on hS1P2 (setting [1]) worked out at 3.6%; at hS1P1 (setting [2]), 6.6%. In addition, on hS1P3, the pIC50 is 5.27.
As for `CC(C)(C)C(=O)C(=NNc1ccccc1)Nc1ccc(Cl)cc1` [Compound 50, 1-(4-chlorophenylamino)-1-(phenylhydrazono)-3,3-dimethyl-2-butanone], the inhibition at 10 µM at hS1P2 (setting [3]) amounted to 13.6%; on hS1P1 (setting [4]) it was 25.1%. The pIC50 on hS1P3 is 5.43.
On to `Cc1ccc(NN=C(Nc2cc(Cl)cc(Cl)c2)C(=O)C(C)(C)C)cc1` [Compound 64, 1-(3,5-dichlorophenylamino)-1-(4-methylphenylhydrazono)-3,3-dimethyl-2-butanone], for which the inhibition at 10 µM at hS1P2 (setting [3]) is 9.1%; at hS1P1 (setting [4]), -1%.
As to `C#Cc1ccc(NC(=NNc2ccc(C#N)cc2)C(=O)C(C)(C)C)cc1` [Compound 86, 1-(4-cyanophenylhydrazono)-1-(4-ethynylphenylamino)-3,3-dimethyl-2-butanone], the pIC50 on hS1P3 was 5.18.
For `COc1ccc(NC(=NNc2ccc(C#N)cc2)C(=O)C(C)(C)C)cc1` [Compound 87, 1-(4-cyanophenylhydrazono)-1-(4-methoxyphenylamino)-3,3-dimethyl-2-butanone], the pIC50 at hS1P3 was 4.85.
Still for that read-out and setting: the result for `COc1ccc(NN=C(Nc2ccc(Cl)cc2)C(=O)C(C)(C)C)cc1` [Compound 90, 1-(4-chlorophenylamino)-1-(4-methoxyphenylhydrazono)-3,3-dimethyl-2-butanone] reads 5.18; that for `CC(=O)c1ccc(NN=C(Nc2cccc(F)c2)C(=O)C(C)(C)C)cc1` [Compound 91, 1-(4-acetylphenylhydrazono)-1-(3-fluorophenylamino)-3,3-dimethyl-2-butanone], 5.05; that for `CC(=O)c1ccc(NN=C(Nc2ccc(F)cc2)C(=O)C(C)(C)C)cc1` [Compound 92, 1-(4-acetylphenylhydrazono)-1-(4-fluorophenylamino)-3,3-dimethyl-2-butanone], 4.94.
Consider `C#Cc1ccc(NC(=NNc2ccc(C(C)=O)cc2)C(=O)C(C)(C)C)cc1` [Compound 95, 1-(4-acetylphenylhydrazono)-1-(4-ethynylphenylamino)-3,3-dimethyl-2-butanone], for which, on hS1P3, the pIC50 was 4.73.
Same read-out and setting: to `CC(C)(C)C(=O)C(=NNc1ccc(S(C)(=O)=O)cc1)Nc1ccc(Cl)cc1` [Compound 99, 1-(4-chlorophenylamino)-1-(4-methanesulfonylphenylhydrazono)-3,3-dimethyl-2-butanone] belongs 4.98.
Still for that read-out and setting: the result for `CC(C)(C)C(=O)C(=NNc1ccc(Br)cc1)Nc1ccc(Cl)c(F)c1` [Compound 105, 1-(4-bromophenylhydrazono)-1-(4-chloro-3-fluorophenylamino)-3,3-dimethyl-2-butanone] reads 6.28; that for `C#Cc1ccc(NN=C(Nc2ccc(Cl)cc2)C(=O)C(C)(C)C)cc1` [Compound 106, 1-(4-chlorophenylamino)-1-(4-ethynylphenylhydrazono)-3,3-dimethyl-2-butanone], 6.18.
Still for that read-out and setting: to `C#Cc1cccc(NC(=NNc2ccc(Cl)c(Cl)c2)C(=O)C(C)(C)C)c1` [Compound 107, 1-(3,4-dichlorophenylhydrazono)-1-(3-ethynylphenylamino)-3,3-dimethyl-2-butanone] belongs 6.16.
With `CCCCC(=O)C(=NNc1ccc(Cl)cc1)Nc1ccc(Cl)c(Cl)c1` [Compound 109, 1-(4-chlorophenylhydrazono)-1-(3,4-dichlorophenylamino)-2-hexanone], on hS1P3, the pIC50 is 6.12.
The same measure, in the same setting: to `CCC(CC)C(=O)C(=NNc1ccc(Cl)cc1)Nc1ccc(Cl)cc1` [Compound 110, 1-(4-chlorophenylamino)-1-(4-chlorophenylhydrazono)-3-ethyl-2-pentanone] belongs 6.01.
For `CC(C)(C)CC(=O)C(=NNc1ccc(Cl)cc1)Nc1ccc(F)cc1` [Compound 114, 1-(4-chlorophenylhydrazono)-1-(4-fluorophenylamino)-4,4-dimethyl-2-pentanone], the pIC50 at hS1P3 is 5.68.
`O=C(C(=NNc1ccc(Cl)cc1)Nc1ccc(Cl)cc1)c1ccco1` [Compound 116, 1-(4-chlorophenylamino)-1-(4-chlorophenylhydrazono)-2-(2-furyl)-2-ethanone]: the pIC50 on hS1P3 is 5.68.
In the case of `O=C(C(=NNc1ccc(Cl)cc1)Nc1ccc(F)cc1)c1ccco1` [Compound 118, 1-(4-chlorophenylhydrazono)-1-(4-fluorophenylamino)-2-(2-furyl)-2-ethanone], the pIC50 at hS1P3 is 5.41.
With `O=C(C(=NNc1ccc(Cl)cc1)Nc1ccc(Br)cc1)c1ccco1` [Compound 119, 1-(4-bromophenylamino)-1-(4-chlorophenylhydrazono)-2-(2-furyl)-2-ethanone], the pIC50 at hS1P3 was 5.37.
On the same count and under the same terms, to `O=C(C(=NNc1ccc(Cl)cc1)Nc1cccc(C(F)(F)F)c1)c1ccco1` [Compound 120, 1-(4-chlorophenylhydrazono)-1-(3-trifluoromethylphenylamino)-2-(2-furyl)-2-ethanone] belongs 5.26; to `CC(C)(C)C(=O)C(=NNc1ccc(Cl)c(Cl)c1)Nc1cccc(Cl)c1` [Compound 123, 1-(3-chlorophenylamino)-1-(3,4-dichlorophenylhydrazono)-3,3-dimethyl-2-butanone], 6.47; to `CC(C)(C)C(=O)C(=NNc1ccc(Cl)c(Cl)c1)Nc1ccc(Cl)cc1` [Compound 124, 1-(4-chlorophenylamino)-1-(3,4-dichlorophenylhydrazono)-3,3-dimethyl-2-butanone], 6.35.
On the same count and under the same terms, to `O=C(C(=NNc1ccc(Cl)cc1)Nc1ccc(Cl)cc1)c1cccs1` [Compound 125, 1-(4-chlorophenylamino)-1-(4-chlorophenylhydrazono)-2-(2-thienyl)-2-ethanone] belongs 5.08.
Regarding `C#Cc1ccc(NC(=NNc2ccc(Cl)c(Cl)c2)C(=O)C(C)(C)C)cc1` [Compound 132, 1-(3,4-dichlorophenylhydrazono)-1-(4-ethynylphenylamino)-3,3-dimethyl-2-butanone], the pIC50 at hS1P3 is 6.09.
Still for that read-out and setting: the result for `CC(C)(C)C(=O)C(=NNc1ccc(Cl)cc1)Nc1ccc(Cl)c(F)c1` [Compound 135, 1-(4-chloro-3-fluorophenylamino)-1-(4-chlorophenylhydrazono)-3,3-dimethyl-2-butanone] reads 6.05; that for `CCCCC(=O)C(=NNc1ccc(Cl)cc1)Nc1cccc(Cl)c1` [Compound 141, 1-(3-chlorophenylamino)-1-(4-chlorophenylhydrazono)-2-hexanone], 5.70.
